Test results reported in patent publication US6689773B2, “Uracil substituted phenyl sulfamoyl carboxamides” (BASF Aktiengesellschaft, priority 2000, dated 2004).

Experiments:
[1] = test system: Polygonum persicaria (POLPE), redshank; ladysthumb; experiment: Greenhouse post-emergence herbicidal action (Example 149); assay type: in vivo; details: 15.6 or 7.8 g/ha of a.i.
Experimental: (§1) The culture containers used were plastic flowerpots containing loamy sand with approximately 3.0% of humus as substrate. The seeds of the test plants were sown separately for each species.
(§2) For the post-emergence treatment, the test plants were grown to a plant height of from 3 to 15 cm, depending on the plant habit, and only then treated with the active ingredients which had been suspended or emulsified in water. To this end, the test plants were either sown directly and grown in the same containers, or they were first grown separately as seedlings and transplanted into the test containers a few days prior to treatment. The rate of application for the post-emergence treatment was 15.6 or 7.8 g/ha active ingredient.
(§3) Depending on the species, the plants were kept at from 10-25° C. and 20-35° C., respectively. The test period extended over 2 to 4 weeks. During this time, the plants were tended, and their response to the individual treatments was evaluated.
(§4) Evaluation was carried out using a scale of from 0 to 100. 100 means no emergence of the plants, or complete destruction of at least the aerial parts, and 0 means no damage or normal course of growth.
(§5) The plants used in the greenhouse experiments belonged to the following species: […]

[2] = test system: Pharbitis purpurea (PHBPU), common or tall morningglory; experiment: as above; assay type: in vivo; details: 15.6 or 7.8 g/ha of a.i.
Experimental: as §1, §2, §3, §4, §5

[3] = test system: Amaranthus retroflexus (AMARE), Redroot pigweed; experiment: as above; assay type: in vivo; details: 15.6 or 7.8 g/ha of a.i.
Experimental: as §1, §2, §3, §4, §5

potato plants = experiment: Field trials of preharvest desiccant activity (Example 151); assay type: in vivo, Potatoes; details: EC formulation 120 grams a.i./liter applied to foliage a few weeks before harvest
Experimental: Field evaluations of preharvest desiccant activity were performed at several different locations using compound Ia.86. In each experiment treatments was replicated three times in a randomized complete block experimental design. Potatoes were grown using good agronomic practices of each area. Treatments were applied a few weeks before planned potato harvest. The test compound was formulated as an emulsifiable concentrate (EC) formulation with 120 grams a.i./liter. The formulation was diluted with water, spray adjuvants were added, and the treatment solution was applied to the foliage of potatoes in from 187 to 600 l/ha of total spray volume. Unless indicated otherwise, the treatments also contained […] of methylated seed oil adjuvant (Hasten or SUN-IT II. In the case of split applications, the second application was made about 1 week after the initial application. At various intervals after treatment, desiccation of stems and leaves was evaluated separately, on a visual % desiccation scale. In each test the test compound was compared to appropriate commercial standards at the normal rate for each standard for the area.

[4] = test system: CHEAL, Lambsquarters, Chenopodium album, L. Common; experiment: Postemergence herbicidal evaluation (Example 147); assay type: in vivo; details: rating scale 0-9, two to three weeks after treatment
In short: (§6)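 First, seedlings were raised for about two weeks. Next, they were sprayed at 40 psi with compound (about 0.016 to 0.032 kg/ha) in acetone/water 80/20 containing 1.0% methylated seed oil. Finally, after two to three greenhouse weeks, overall appearance versus control was rated 0-9, averaging repeat tests.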

[5] = test system: ABUTH, Velvetleaf, Abutilon theophrasti, Medic.; experiment: Postemergence herbicidal evaluation (Example 147); assay type: in vivo; details: rating scale 0-9, two to three weeks after treatment
In short: as §6

[6] = test system: XANST, Cocklebur, Xanthium strumariam; experiment: Postemergence herbicidal evaluation (Example 147); assay type: in vivo; details: rating scale 0-9, two to three weeks after treatment
In short: as §6

[7] = test system: TRZAW, Winter wheat, Tritium Aestivum, L. (Winter); experiment: Postemergence herbicidal evaluation (Example 147); assay type: in vivo; details: rating scale 0-9, two to three weeks after treatment
In short: as §6

[8] = test system: IPOHE, Morningglory, Ivyleaf, Ipomoea hederacea, (L)Jacq.; experiment: Postemergence herbicidal evaluation (Example 147); assay type: in vivo; details: rating scale 0-9, two to three weeks after treatment
In short: as §6

[9] = test system: ECHCG, Barnyardgrass, Echinochloa crusgalli, (L.)Beau; experiment: Postemergence herbicidal evaluation (Example 147); assay type: in vivo; details: rating scale 0-9, two to three weeks after treatment
In short: as §6

[10] = test system: SETVI, Green foxtail, Setaria viridis, (L.)Beau; experiment: Postemergence herbicidal evaluation (Example 147); assay type: in vivo; details: rating scale 0-9, two to three weeks after treatment
In short: as §6

[11] = test system: ZEAMX, Field corn, Zea mays L.; experiment: Postemergence herbicidal evaluation (Example 147); assay type: in vivo; details: rating scale 0-9, two to three weeks after treatment
In short: as §6

[12] = test system: ALOMY, Blackgrass, Alopecurus myosuroides; experiment: Postemergence herbicidal evaluation (Example 147); assay type: in vivo; details: rating scale 0-9, two to three weeks after treatment
In short: as §6

[13] = test system: AMBEL, Ragweed, Common, Ambrosia artemiisifolia, L.; experiment: Postemergence herbicidal evaluation (Example 147); assay type: in vivo; details: rating scale 0-9, two to three weeks after treatment
In short: as §6

[14] = test system: DIGSA, Crabgrass, (Hairy) L, Digitaria sanguinalis, (L)Scop; experiment: Postemergence herbicidal evaluation (Example 147); assay type: in vivo; details: rating scale 0-9, two to three weeks after treatment
In short: as §6

[15] = test system: GLXMA, Soybean, Glycine max, (L.) Merr.; experiment: Postemergence herbicidal evaluation (Example 147); assay type: in vivo; details: rating scale 0-9, two to three weeks after treatment
In short: as §6

[16] = test system: CHEAL, Lambsquarters, Chenopodium album, L. Common; experiment: Preemergence herbicidal evaluation (Example 148); assay type: in vivo; details: rating scale 0-9, two to four weeks after treatment
In short: (§7)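 Applied: aqueous acetone solution, ~0.125–0.250 kg/ha, sprayed on soil just after seeding. Read: visual plant appearance against control, 2–4 weeks post-spray.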

[17] = test system: ABUTH, Velvetleaf, Abutilon theophrasti, Medic.; experiment: Preemergence herbicidal evaluation (Example 148); assay type: in vivo; details: rating scale 0-9, two to four weeks after treatment
In short: as §7

[18] = test system: XANST, Cocklebur, Xanthium strumariam; experiment: Preemergence herbicidal evaluation (Example 148); assay type: in vivo; details: rating scale 0-9, two to four weeks after treatment
In short: as §7

[19] = test system: TRZAW, Winter wheat, Tritium Aestivum, L. (Winter); experiment: Preemergence herbicidal evaluation (Example 148); assay type: in vivo; details: rating scale 0-9, two to four weeks after treatment
In short: as §7

[20] = test system: IPOHE, Morningglory, Ivyleaf, Ipomoea hederacea, (L)Jacq.; experiment: Preemergence herbicidal evaluation (Example 148); assay type: in vivo; details: rating scale 0-9, two to four weeks after treatment
In short: as §7

[21] = test system: ECHCG, Barnyardgrass, Echinochloa crusgalli, (L.)Beau; experiment: Preemergence herbicidal evaluation (Example 148); assay type: in vivo; details: rating scale 0-9, two to four weeks after treatment
In short: as §7

[22] = test system: SETVI, Green foxtail, Setaria viridis, (L.)Beau; experiment: Preemergence herbicidal evaluation (Example 148); assay type: in vivo; details: rating scale 0-9, two to four weeks after treatment
In short: as §7

[23] = test system: ZEAMX, Field corn, Zea mays L.; experiment: Preemergence herbicidal evaluation (Example 148); assay type: in vivo; details: rating scale 0-9, two to four weeks after treatment
In short: as §7

[24] = test system: ALOMY, Blackgrass, Alopecurus myosuroides; experiment: Preemergence herbicidal evaluation (Example 148); assay type: in vivo; details: rating scale 0-9, two to four weeks after treatment
In short: as §7

[25] = test system: AMBEL, Ragweed, Common, Ambrosia artemiisifolia, L.; experiment: Preemergence herbicidal evaluation (Example 148); assay type: in vivo; details: rating scale 0-9, two to four weeks after treatment
In short: as §7

[26] = test system: DIGSA, Crabgrass, (Hairy) L, Digitaria sanguinalis, (L)Scop; experiment: Preemergence herbicidal evaluation (Example 148); assay type: in vivo; details: rating scale 0-9, two to four weeks after treatment
In short: as §7

[27] = test system: GLXMA, Soybean, Glycine max, (L.) Merr.; experiment: Preemergence herbicidal evaluation (Example 148); assay type: in vivo; details: rate 0.125 kg/ha, rating scale 0-9, two to four weeks after treatment
In short: as §7

CC(C)N(C)S(=O)(=O)NC(=O)c1cc(-c2ncc(C(F)(F)F)cc2Cl)c(F)cc1Cl [Iy.86, N′-[[2-Chloro-5-[3-chloro-5-(trifluoromethyl)-2-pyridinyl]-4-fluorobenzoyl]]-N-isopropyl-N-methylsulfamide]
very good herbicial action: herbicidal action [1] | herbicidal action [2] | herbicidal action [3]

CC(C)N(C)S(=O)(=O)NC(=O)c1cc(-c2nn(C)c(OC(F)F)c2Cl)c(F)cc1Cl [Ip.86, 4-Chloro-3-[4-chloro-2-fluoro-5-(N-methyl-N-isopropyl)-sulfamoylcarboxamidophenyl]-5-difluoromethoxy-1-methyl-1H-pyrazole]
very good herbicial action: herbicidal action [1] | herbicidal action [2] | herbicidal action [3]

CC(C)N(C)S(=O)(=O)NC(=O)c1cc(-n2c(=O)cc(C(F)(F)F)n(C)c2=O)c(F)cc1Cl [Ia.86]
very effective: desiccation of the leaves and stems of potato plants (potato plants)

CC(C)N(C)S(=O)(=O)NC(=O)c1cc(-n2c(=O)n(C)c(=S)n(C)c2=O)c(F)cc1Cl [Ij.86, N′-[2-Chloro-5-(3,5-dimethyl-2,6-dioxo-4-thioxo-1,3,5-triazinan-1-yl)-4-fluorobenzoyl]-N-isopropyl-N-methylsulfamide]
very good herbicial action: herbicidal action [1] | herbicidal action [2] | herbicidal action [3]

Cn1c(C(F)(F)F)cc(=O)n(-c2cc(C(=O)NS(=O)(=O)NCc3cccs3)c(Cl)cc2F)c1=O [Example 77]
2.0: Preemergence herbicidal rating ECHCG ([21]; rate 0.125 kg/ha) | Preemergence herbicidal rating SETVI ([22]; rate 0.125 kg/ha) | Preemergence herbicidal rating SETVI ([22]; rate 0.25 kg/ha) | Preemergence herbicidal rating DIGSA ([26]; rate 0.125 kg/ha)
7.0: Postemergence herbicidal rating CHEAL ([4]; rate 0.032 kg/ha) | Preemergence herbicidal rating IPOHE ([20]; rate 0.125 kg/ha)
0.0: Preemergence herbicidal rating TRZAW ([19]; rate 0.125 kg/ha) | Preemergence herbicidal rating TRZAW ([19]; rate 0.25 kg/ha) | Preemergence herbicidal rating ZEAMX ([23]; rate 0.125 kg/ha) | Preemergence herbicidal rating ALMOY ([24]; rate 0.125 kg/ha) | Preemergence herbicidal rating ALMOY ([24]; rate 0.25 kg/ha)
1.0: Postemergence herbicidal rating ALMOY ([12]; rate 0.016 kg/ha) | Postemergence herbicidal rating ALMOY ([12]; rate 0.032 kg/ha) | Preemergence herbicidal rating ZEAMX ([23]; rate 0.25 kg/ha) | Preemergence herbicidal rating GLXMA [27]
6.5: Postemergence herbicidal rating ZEAMX ([11]; rate 0.032 kg/ha)
5.0: Postemergence herbicidal rating TRZAW ([7]; rate 0.032 kg/ha) | Postemergence herbicidal rating SETVI ([10]; rate 0.016 kg/ha)
7.5: Postemergence herbicidal rating GLXMA ([15]; rate 0.016 kg/ha) | Postemergence herbicidal rating GLXMA ([15]; rate 0.032 kg/ha)
6.0: Postemergence herbicidal rating CHEAL ([4]; rate 0.016 kg/ha) | Postemergence herbicidal rating ECHCG ([9]; rate 0.032 kg/ha) | Postemergence herbicidal rating SETVI ([10]; rate 0.032 kg/ha) | Postemergence herbicidal rating ZEAMX ([11]; rate 0.016 kg/ha)
8.0: Postemergence herbicidal rating AMBEL ([13]; rate 0.016 kg/ha) | Postemergence herbicidal rating AMBEL ([13]; rate 0.032 kg/ha) | Preemergence herbicidal rating XANST ([18]; rate 0.25 kg/ha)
4.0: Postemergence herbicidal rating ECHCG ([9]; rate 0.016 kg/ha) | Postemergence herbicidal rating DIGSA ([14]; rate 0.016 kg/ha) | Postemergence herbicidal rating DIGSA ([14]; rate 0.032 kg/ha) | Preemergence herbicidal rating DIGSA ([26]; rate 0.25 kg/ha)
4.5: Postemergence herbicidal rating TRZAW ([7]; rate 0.016 kg/ha)
9.0: Postemergence herbicidal rating ABUTH ([5]; rate 0.016 kg/ha) | Postemergence herbicidal rating ABUTH ([5]; rate 0.032 kg/ha) | Postemergence herbicidal rating XANST ([6]; rate 0.016 kg/ha) | Postemergence herbicidal rating XANST ([6]; rate 0.032 kg/ha) | Postemergence herbicidal rating IPOHE ([8]; rate 0.016 kg/ha) | Postemergence herbicidal rating IPOHE ([8]; rate 0.032 kg/ha) | Preemergence herbicidal rating CHEAL ([16]; rate 0.125 kg/ha) | Preemergence herbicidal rating CHEAL ([16]; rate 0.25 kg/ha) | Preemergence herbicidal rating ABUTH ([17]; rate 0.125 kg/ha) | Preemergence herbicidal rating ABUTH ([17]; rate 0.25 kg/ha) | Preemergence herbicidal rating IPOHE ([20]; rate 0.25 kg/ha) | Preemergence herbicidal rating AMBEL ([25]; rate 0.125 kg/ha) | Preemergence herbicidal rating AMBEL ([25]; rate 0.25 kg/ha)
3.0: Preemergence herbicidal rating XANST ([18]; rate 0.125 kg/ha) | Preemergence herbicidal rating ECHCG ([21]; rate 0.25 kg/ha)
